According to ChEMBL document CHEMBL4351028, “Benzoyl indoles with metabolic stability as reversal agents for ABCG2-mediated multidrug resistance” (Eur J Med Chem, 2019):

Experiments:
Type in all cases: cell-based
NCI-H460 [1] = experiment: Cytotoxicity against human NCI-H460 cells assessed as concentration that causes inhibition of cell viability by <=20% incubated for 24 hrs by MTT assay; details: nci-h460, 24 h
[2] = Cytotoxicity against human NCI-H460/MX20 cells assessed as concentration that causes inhibition of cell viability by <=20% incubated for 24 hrs by MTT assay
[3] = target: T1, Broad substrate specificity ATP-binding cassette transporter ABCG2 (Homo sapiens, UniProt Q9UNQ0); experiment: (§1) Reversal of ABCG2-mediated multidrug resistance in human NCI-H460/MX20 cells assessed as potentiation of mitoxantrone-induced cytotoxicity by measuring inhibition of cell proliferation at 25 uM pretreated for 2 hrs followed by mitoxantrone addition and measured after 44 hrs by MTT assay (reference value: 24 +/- 3%); details: for inhibition (INH): 25 µM
T1 sequence (Q9UNQ0 whole entry): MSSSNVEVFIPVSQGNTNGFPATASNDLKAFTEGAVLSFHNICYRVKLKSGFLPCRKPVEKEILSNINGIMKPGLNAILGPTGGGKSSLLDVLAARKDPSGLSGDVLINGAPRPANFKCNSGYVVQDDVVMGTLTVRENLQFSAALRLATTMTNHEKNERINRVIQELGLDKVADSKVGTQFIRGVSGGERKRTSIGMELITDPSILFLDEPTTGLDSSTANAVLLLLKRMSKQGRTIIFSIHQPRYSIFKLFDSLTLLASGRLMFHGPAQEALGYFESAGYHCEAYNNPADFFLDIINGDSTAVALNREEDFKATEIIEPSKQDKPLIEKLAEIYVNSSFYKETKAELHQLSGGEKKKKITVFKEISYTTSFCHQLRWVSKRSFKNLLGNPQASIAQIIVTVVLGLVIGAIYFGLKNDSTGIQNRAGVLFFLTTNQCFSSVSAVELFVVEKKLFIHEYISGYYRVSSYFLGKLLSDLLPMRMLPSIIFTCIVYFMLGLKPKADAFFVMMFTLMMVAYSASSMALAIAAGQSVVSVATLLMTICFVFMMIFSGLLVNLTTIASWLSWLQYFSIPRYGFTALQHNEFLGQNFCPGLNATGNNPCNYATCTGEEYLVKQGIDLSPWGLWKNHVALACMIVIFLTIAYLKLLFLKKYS

[4] = target: T1, Broad substrate specificity ATP-binding cassette transporter ABCG2; experiment: Reversal of ABCG2-mediated multidrug resistance in human NCI-H460/MX20 cells assessed as potentiation of mitoxantrone-induced cytotoxicity by measuring inhibition of cell proliferation pretreated for 2 hrs followed by mitoxantrone addition and measured after 44 hrs by MTT assay
NCI-H460 [5] = experiment: Cytotoxicity against human NCI-H460 cells assessed as inhibition of cell viability incubated for 2 hrs by MTT assay; details: NCI-H460, 2 h
[6] = Cytotoxicity against human NCI-H460/MX20 cells assessed as inhibition of cell viability incubated for 2 hrs by MTT assay; details: NCI-H460/MX20, 2 h
[7] = target: T1, Broad substrate specificity ATP-binding cassette transporter ABCG2; experiment: as §1, with “10” for “25”; details: for inhibition (INH): 10 µM

SMILES | Activity (NCI-H460 [1]) | Activity [2] | inhibition at 25 µM [3] | inhibition (INH) [4] | IC50 (NCI-H460 [5]; read-out: IC50) | IC50 [6] | inhibition (INH) [7] | inhibition (INH) [3] | inhibition at 10 µM [7] | IC50 (NCI-H460 [5])
O=C(c1ccccc1O)c1c[nH]c2ccc(O)cc12 | 25 µM | 25 µM | > 87% | Dose-dependent effect | > 100 µM | > 100 µM | – | – | – | –
COc1ccc(C(=O)c2ccc3[nH]cc(C(=O)c4ccc(OC)cc4OC)c3c2OC)c(OC)c1 | 25 µM | 25 µM | > 87% | Dose-dependent effect | > 100 µM | 68.7 µM | – | – | – | –
O=C(c1cc(O)c(O)c(O)c1)c1c[nH]c2ccc(O)cc12 | 25 µM | 25 µM | – | – | > 100 µM | > 100 µM | – | – | – | –
O=C(c1ccc(O)cc1O)c1c[nH]c2c(O)cccc12 | 10 µM | 10 µM | – | – | > 100 µM | > 100 µM | – | – | – | –
O=C(c1c(O)cccc1O)c1c[nH]c2ccc(O)cc12 | 10 µM | 10 µM | – | – | > 100 µM | > 100 µM | – | – | – | –
COc1ccc(C(=O)c2c[nH]c3c(OC)cccc23)c(OC)c1 | 10 µM | 10 µM | – | – | > 100 µM | > 100 µM | Active | – | – | –
COc1ccc(C(=O)c2c(OC)ccc3cc(OC)ccc23)c(OC)c1 | 10 µM | 10 µM | – | – | 86.2 µM | 84 µM | – | Not Active | – | –
COc1ccc(C(=O)c2c[nH]c3cccc(OC)c23)cc1 | 10 µM | 10 µM | – | – | > 100 µM | > 100 µM | Active | – | – | –
COc1cccc(C(=O)c2c[nH]c3ccc(OC)cc23)c1 | 10 µM | 10 µM | – | Dose-dependent effect | > 100 µM | 53.2 µM | – | – | > 87% | –
O=C(c1ccc(O)cc1)c1c[nH]c2cccc(O)c12 | 25 µM | 25 µM | > 87% | Dose-dependent effect | > 100 µM | > 100 µM | – | – | – | –
O=C(c1ccc(O)cc1)c1ccc2[nH]cc(C(=O)c3ccc(O)cc3)c2c1O | 25 µM | 25 µM | – | – | > 100 µM | > 100 µM | – | – | – | –
O=C(c1cc(O)c(O)c(O)c1)c1c[nH]c2cccc(O)c12 | 25 µM | 25 µM | – | – | > 100 µM | > 100 µM | – | – | – | –
O=C(c1ccc(O)cc1)c1c[nH]c2ccc(O)cc12 | 25 µM | 25 µM | – | – | > 100 µM | > 100 µM | – | Active | – | –
O=C1c2c(O)ccc(O)c2C(=O)c2c(NCCNCCO)ccc(NCCNCCO)c21 [MITOXANTRONE] | – | – | – | – | – | 40.6 µM | – | – | – | 0.36 µM
COc1ccc(C(=O)c2c[nH]c3ccc(OC)cc23)c(OC)c1 | 25 µM | 25 µM | – | – | > 100 µM | > 100 µM | – | Active | – | –
COc1ccc(C(=O)c2c[nH]c3cccc(OC)c23)c(OC)c1 | 25 µM | 25 µM | – | – | > 100 µM | > 100 µM | – | Active | – | –
O=C(c1cccc(O)c1)c1c[nH]c2ccc(O)cc12 | 25 µM | 25 µM | – | – | > 100 µM | > 100 µM | – | – | – | –
O=C(c1ccc(O)cc1O)c1c[nH]c2cccc(O)c12 | 25 µM | 25 µM | > 87% | Dose-dependent effect | > 100 µM | > 100 µM | – | – | – | –
O=C(c1ccc(O)cc1O)c1c[nH]c2ccc(O)cc12 | 25 µM | 25 µM | – | – | > 100 µM | > 100 µM | – | Active | – | –
